The values below come from patent US20080171697A1, “Peptides Having For Example Antiangiogenic Activity and Applications Thereof In Therapeutics” (priority 2003, published 2008).

Positions of bridges follow the written chain, without caps; N, C: chain ends. No end group written: not given here.

Experiment [1] deals with HUVECs. Put plainly: Study of the peptide entry process in HUVECs. Particulars: for entry of the peptide into HUVECs: cotreatment with dextran beads for 5 h. In kind it is cell-based, human. An excerpt: No entry of the FITC-CycRAD peptide into HUVECs, nor entry of the FITC-CycRGD peptide into HeLas is observed.
Experiment [2] concerns HUVECs. Nature of the experiment: Intracellular routing of TEAM-VP (confocal microscope). The format is cell-based, human. To be noted: for codistribution with the lysosomes (anti-Lamp2-FITC): Streptavidin-Texas Red; for codistribution with the mitochondria (anti-VDAC): Streptavidin-FITC. As for the experimental part:
HUVECs treated with TEAM-VP for 8, 24 and 32 h are observed using a confocal microscope.

The subject of experiment [3] is HUVEC cells. Nature of the experiment: Cytochrome c release in cellula (microscopy, anti-cytochrome c and anti-VDAC). Particulars: 24 h of treatment, 10 μM. The format is cell-based, human.
Experiment [4] concerns HUVEC cells. Put plainly: Drop in mitochondrial membrane potential in cellula (JC-1, microscope). The format is cell-based, human. To be noted: HUVEC cells treated for 16-24 h with 15 μM, JC-1 labeling.
For experiment [5], the target named is T1, αVβ3 integrins at the surface of endothelial cells (human, UniProt P06756 31-1048; P05106 27-788).
T1 construct: whole, on cells; Native integrin on HUVEC cells; the cells also carry other integrins (αVβ5 was stained as well); also called αVβ3 receptors
Put plainly: peptide brought into contact with endothelial cells; endocytosis, confocal microscopy.

Experiment [6] concerns the target T1, αVβ3 integrins at the surface of …. Put plainly: flow cytometry of FITC-labeled peptide on HUVEC cells (FIG. 2). A general note: Flow cytometry measures light scatter and fluorescence of single cells or particles in a stream.
Description: The HUVEC cells were or were not preincubated for 30 min at ambient temperature with 200 μM of nonlabeled CycRGD peptide before the addition of FITC-CycRGD peptide (10 μM) for 45 min., and were analyzed by flow cytometry (FIG. 2b).

T1 sequence (P06756 31-1048, chain 1 of 2): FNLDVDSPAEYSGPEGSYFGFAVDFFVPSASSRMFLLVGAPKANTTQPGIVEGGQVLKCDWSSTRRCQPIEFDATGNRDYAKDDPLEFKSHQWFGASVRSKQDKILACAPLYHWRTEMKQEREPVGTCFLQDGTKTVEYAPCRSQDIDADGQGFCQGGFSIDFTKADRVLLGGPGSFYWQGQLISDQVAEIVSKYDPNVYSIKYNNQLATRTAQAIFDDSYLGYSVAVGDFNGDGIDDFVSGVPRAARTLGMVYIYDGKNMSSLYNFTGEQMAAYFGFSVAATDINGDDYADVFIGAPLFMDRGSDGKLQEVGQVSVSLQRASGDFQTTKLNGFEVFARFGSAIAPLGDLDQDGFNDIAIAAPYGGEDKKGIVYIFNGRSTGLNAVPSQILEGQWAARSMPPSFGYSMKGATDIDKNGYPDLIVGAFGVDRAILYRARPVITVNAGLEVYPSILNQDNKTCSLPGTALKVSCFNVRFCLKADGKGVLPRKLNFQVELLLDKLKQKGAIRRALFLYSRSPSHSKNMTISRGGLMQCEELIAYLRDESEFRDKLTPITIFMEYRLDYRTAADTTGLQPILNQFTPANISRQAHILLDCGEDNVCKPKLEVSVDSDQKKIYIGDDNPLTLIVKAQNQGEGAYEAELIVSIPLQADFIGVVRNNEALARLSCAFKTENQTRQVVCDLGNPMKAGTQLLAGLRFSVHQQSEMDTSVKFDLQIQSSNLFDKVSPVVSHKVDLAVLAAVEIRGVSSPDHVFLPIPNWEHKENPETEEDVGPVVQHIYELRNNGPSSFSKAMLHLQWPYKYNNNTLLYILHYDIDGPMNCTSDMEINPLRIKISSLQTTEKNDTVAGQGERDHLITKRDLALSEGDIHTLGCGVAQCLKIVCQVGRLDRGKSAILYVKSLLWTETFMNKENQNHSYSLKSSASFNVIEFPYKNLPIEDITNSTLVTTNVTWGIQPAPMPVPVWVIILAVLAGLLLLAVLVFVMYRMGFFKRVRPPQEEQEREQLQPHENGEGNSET
T1 sequence (P05106 27-788, chain 2 of 2): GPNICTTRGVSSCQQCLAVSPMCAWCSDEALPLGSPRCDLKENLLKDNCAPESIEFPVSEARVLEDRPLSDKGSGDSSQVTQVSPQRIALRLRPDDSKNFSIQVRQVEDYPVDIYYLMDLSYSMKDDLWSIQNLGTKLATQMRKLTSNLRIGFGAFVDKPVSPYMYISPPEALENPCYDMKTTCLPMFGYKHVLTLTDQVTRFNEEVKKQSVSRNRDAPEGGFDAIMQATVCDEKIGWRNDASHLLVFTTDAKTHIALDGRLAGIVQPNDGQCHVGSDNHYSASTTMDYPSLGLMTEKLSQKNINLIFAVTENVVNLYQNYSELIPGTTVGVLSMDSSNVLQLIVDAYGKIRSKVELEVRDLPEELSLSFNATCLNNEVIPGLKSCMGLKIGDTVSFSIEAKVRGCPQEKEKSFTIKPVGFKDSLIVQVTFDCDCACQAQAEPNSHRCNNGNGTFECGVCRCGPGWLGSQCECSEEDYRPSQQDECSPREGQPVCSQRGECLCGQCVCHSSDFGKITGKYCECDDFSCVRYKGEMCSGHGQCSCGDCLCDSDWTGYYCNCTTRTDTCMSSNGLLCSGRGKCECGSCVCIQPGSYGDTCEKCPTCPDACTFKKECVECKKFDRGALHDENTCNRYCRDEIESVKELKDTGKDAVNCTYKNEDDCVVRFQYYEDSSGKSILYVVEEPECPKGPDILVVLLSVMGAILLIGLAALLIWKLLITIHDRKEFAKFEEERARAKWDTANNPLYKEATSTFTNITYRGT

Take “GG*CRADMFG*CGG-amide (FITC, cyclised, GG/CGG flanks, amide) [FITC-CycRAD]”: in the experiment on HUVECs [1], the “entry of the peptide into HUVECs” value is listed as “No entry”.

For the molecule “GG*CRGDMFG*C-GG-LLFIHFRIGSRHSRIG-amide (GGCRGDMFGCGGLLFIHFRIGSRHSRIG-NH2; disulfide 3-10; N-terminus assumed; SMILES CC[C@H](C)[C@H](NC(=O)[C@H](CCCNC(=N)N)NC(=O)[C@H](CO)NC(=O)[C@H](Cc1c[nH]cn1)NC(=O)[C@H](CCCNC(=N)N)NC(=O)[C@H](CO)NC(=O)CNC(=O)[C@@H](NC(=O)[C@H](CCCNC(=N)N)NC(=O)[C@H](Cc1ccccc1)NC(=O)[C@H](Cc1c[nH]cn1)NC(=O)[C@@H](NC(=O)[C@H](Cc1ccccc1)NC(=O)[C@H](CC(C)C)NC(=O)[C@H](CC(C)C)NC(=O)CNC(=O)CNC(=O)[C@@H]1CSSC[C@H](NC(=O)CNC(=O)CN)C(=O)N[C@@H](CCCNC(=N)N)C(=O)NCC(=O)N[C@@H](CC(=O)O)C(=O)N[C@@H](CCSC)C(=O)N[C@@H](Cc2ccccc2)C(=O)NCC(=O)N1)[C@@H](C)CC)[C@@H](C)CC)C(=O)NCC(N)=O) [TEAM-VP]”, the “entry of the peptide under sodium azide+deoxyglucose” value with HUVECs [1] (HUVECs, treatment with sodium azide+deoxyglucose) is on record as “inhibited by treatment with sodium azide+deoxyglucose”. In addition, the “codistribution with the lysosomes (anti-Lamp2-FITC)” value is recorded as “codistributes with the lysosomes” with HUVECs [2] (8 h of treatment) and “would appear to leave these organelles” in the experiment on HUVECs [2] (24 h of treatment). The “codistribution with the mitochondria (anti-VDAC)” value in the experiment on HUVECs [2] (24 h) is reported as “partially codistributes”; with HUVECs [2] (32 h), “totally codistributes”. In addition, the “codistribution with the Golgi apparatus (anti-Golgin)” value in the experiment with HUVECs [2] (throughout the treatment (8, 24 and 32 h)) is reported as “No codistribution”. In the experiment on HUVEC cells [3], the “release of cytochrome c in cellula” value was “Release of cytochrome C observed”. Also, in the experiment with HUVEC cells [4], the “drop in mitochondrial membrane potential in cellula” value is recorded as “Drop in potential observed”.

Take “GG*CRGDMFG*CGG-amide (GGCRGDMFGCGG-NH2; disulfide 3-10; also: labeled with FITC in the binding assays) [FITC-CycRGD]”: the “colocalization with dextran beads” value in the experiment with HUVECs [1] (HUVECs, cotreatment for 5 h) was “colocalize with dextran beads”. For the same molecule, the “entry of the peptide into HUVECs” value in the experiment with HUVECs [1] is reported as “enter the HUVECs”.

B1: TEAM-VP (SEQ ID No 2: GG*CRGDMFG*C-GG-[…]-amide) (peptide)
peptide: GGCRGDMFGCGGLLFIHFRIGSRHSRIG-NH2
modifications: disulfide 3-10; not fully specified; also: with or without biotin, FITC label also used
notes: also called chimeric peptide
For B1, the binding result in experiment [5] was “binds”.

B2: GG*CRGDMFG*CGG-amide (CycRGD) (peptide)
peptide: GGCRGDMFGCGG-NH2
modifications: disulfide 3-10; also: labeled with FITC in the binding assays
notes: Cyclised targeting part of TEAM-VP; also called FITC-CycRGD; CycRGD peptide
Turning to B2, in experiment [6], the binding result is “binds”.
